From patent publication US7012144B2, “Quinolone carboxylic acid derivatives” (Korea Research Institute of Chemical Technology, priority 2001, dated 2006)
In brackets after ≈: the same amount, converted by molar mass. Read-outs that look alike come from different tables or passages of the source.

Key:
[1] = test system: Escherchia coli 078; test: Antibacterial activity in vitro (MIC, two-fold dilution, Muller Hinton agar); type: cell-based; conditions: 10^7 CFU/ml, 37° C., 18 hours
Method: (§1) The MIC values were determined employing a two-fold dilution method and Muller Hinton agar medium. Each of the Hoechst 345 standard strains having the concentration of 10^7CFU (colony forming unit)/ml was inoculated onto the medium, and incubated at 37° C. for 18 hours.

[2] = test system: Escherchia coli 1507E; test: as above; type: cell-based; conditions: 10^7 CFU/ml, 37° C., 18 hours
Method: as §1

[3] = test system: Escherchia coli DC0; test: as above; type: cell-based
Method: as §1

[4] = test system: Escherchia coli DC2; test: as above; type: cell-based
Method: as §1

[5] = test system: Escherchia coli TEM; test: as above; type: cell-based; conditions: 10^7 CFU/ml, 37° C., 18 hours
Method: as §1

[6] = test system: Klebsiella oxytoca 1082E; test: as above; type: cell-based; conditions: 10^7 CFU/ml, 37° C., 18 hours
Method: as §1

[7] = test system: Klebsiella oxytoca 1522E; test: as above; type: cell-based; conditions: 10^7 CFU/ml, 37° C., 18 hours
Method: as §1

[8] = test system: Pseudomonas aeruginosa 1592E; test: as above; type: cell-based; conditions: 10^7 CFU/ml, 37° C., 18 hours
Method: as §1

[9] = test system: Pseudomonas aeruginosa 1771M; test: as above; type: cell-based
Method: as §1

[10] = test system: Pseudomonas aeruginosa 1771; test: as above; type: cell-based; conditions: 10^7 CFU/ml, 37° C., 18 hours
Method: as §1

[11] = test system: Pseudomonas aeruginosa 9027; test: as above; type: cell-based; conditions: 10^7 CFU/ml, 37° C., 18 hours
Method: as §1

[12] = test system: Salmonella typhymurium; test: as above; type: cell-based; conditions: 10^7 CFU/ml, 37° C., 18 hours
Method: as §1

[13] = test system: Staphylococcus aureus 285; test: as above; type: cell-based
Method: as §1

[14] = test system: Staphylococcus aureus 503; test: as above; type: cell-based; conditions: 10^7 CFU/ml, 37° C., 18 hours
Method: as §1

[15] = test system: Staphylococcus aureus SG 511; test: as above; type: cell-based; conditions: 37° C., 18 hours
Method: as §1

[16] = test system: Streptococcus faecium MD 8b; test: as above; type: cell-based; conditions: 10^7 CFU/ml, 37° C., 18 hours
Method: as §1

[17] = test system: Streptococcus pyogenes A 308; test: as above; type: cell-based; conditions: 37° C., 18 hours
Method: as §1

[18] = test system: Streptococcus pyogenes A 77; test: as above; type: cell-based
Method: as §1

[19] = test system: calf thymus topoisomerase II; test: Inhibition of the enzyme activity of topoisomerase II; type: biochemical; conditions: concentration to inhibit the enzyme activity of calf thymus topoisomerase II
Method: (§2) Selectivity indexes of the compounds of the present invention and control compounds were measured using gyrase purified from of E. coli and calf thymus topoisomerase II obtained from Topogen. Co.
(§3) The selectivity index (S.I.) was calculated by the equation 1. [formula] wherein, IC100, Topo II is the concentration of a compound to inhibit the enzyme activity of topoisomerase II and IC100, Gyrase is the concentration of a compound to inhibit the enzyme activity of gyrase of E. coli.

[20] = target: T1, gyrase of E. coli (Escherichia coli, UniProt P0AES4+P0AES6); test: Inhibition of the enzyme activity of gyrase; type: biochemical; conditions: concentration to inhibit the enzyme activity of gyrase of E. coli
T1 construct: gyrase purified from of E. coli; host or cells: E. coli
T1 sequence (P0AES4 whole entry, one chain of several): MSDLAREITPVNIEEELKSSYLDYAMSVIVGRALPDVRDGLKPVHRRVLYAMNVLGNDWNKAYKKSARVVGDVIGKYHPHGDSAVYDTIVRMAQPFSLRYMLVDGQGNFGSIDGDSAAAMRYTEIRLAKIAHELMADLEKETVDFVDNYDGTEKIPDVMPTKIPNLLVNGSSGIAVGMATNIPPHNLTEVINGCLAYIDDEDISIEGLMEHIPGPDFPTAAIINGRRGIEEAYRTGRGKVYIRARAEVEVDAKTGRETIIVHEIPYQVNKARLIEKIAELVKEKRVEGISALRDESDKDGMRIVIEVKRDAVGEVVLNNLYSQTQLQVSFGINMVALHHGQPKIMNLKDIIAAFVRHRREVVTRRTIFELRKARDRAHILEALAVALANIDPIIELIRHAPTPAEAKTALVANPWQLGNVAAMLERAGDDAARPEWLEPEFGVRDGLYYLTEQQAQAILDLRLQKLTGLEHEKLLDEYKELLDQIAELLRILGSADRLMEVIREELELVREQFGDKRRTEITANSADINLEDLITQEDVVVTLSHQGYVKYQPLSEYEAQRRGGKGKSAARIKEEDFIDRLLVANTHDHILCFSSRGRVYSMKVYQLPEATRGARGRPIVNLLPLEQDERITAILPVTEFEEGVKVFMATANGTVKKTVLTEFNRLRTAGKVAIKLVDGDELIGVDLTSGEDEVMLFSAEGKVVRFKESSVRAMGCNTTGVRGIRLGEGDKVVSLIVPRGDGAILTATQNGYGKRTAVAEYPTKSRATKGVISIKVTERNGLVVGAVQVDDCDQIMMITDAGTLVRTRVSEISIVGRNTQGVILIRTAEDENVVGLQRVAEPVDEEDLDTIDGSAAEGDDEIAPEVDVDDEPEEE
Method: as §2, §3

[21] = test system: Enterobacter cloacae 1321E; test: Antibacterial activity in vitro (MIC, two-fold dilution, Muller Hinton agar); type: cell-based; conditions: 10^7 CFU/ml, 37° C., 18 hours
Method: as §1

[22] = test system: Enterobacter cloacae P99; test: as above; type: cell-based; conditions: 10^7 CFU/ml, 37° C., 18 hours
Method: as §1

[23] = Pseudomonas aeruginosa, 1771M, 18 h
[24] = SG511, 10^7 CFU/ml, read-out: MIC
[25] = Enterococcus faecium, MD8B, read-out: MIC
[26] = A308, 10^7 CFU/ml, read-out: MIC
[27] = Escherchia coli DC0, 10^7 CFU/ml, 37° C., 18 hours
[28] = Escherchia coli DC2, 10^7 CFU/ml, 37° C., 18 hours
[29] = Pseudomonas aeruginosa 1771M, 10^7 CFU/ml, 37° C., 18 hours
[30] = Staphylococcus aureus 285, 10^7 CFU/ml, 37° C., 18 hours
[31] = Streptococcus pyogenes A 77, 10^7 CFU/ml, 37° C., 18 hours

| SMILES | MIC ([1]; read-out: MIC) [µg/mL] | MIC ([2]; read-out: MIC) [µg/mL] | MIC ([3]; 18 h) [µg/mL] | MIC ([5]; read-out: MIC) [µg/mL] | MIC ([6]; read-out: MIC) [µg/mL] | MIC ([7]; read-out: MIC) [µg/mL] | MIC ([8]; read-out: MIC) [µg/mL] | MIC [9, 23] [µg/mL] | MIC ([10]; read-out: MIC) [µg/mL] | MIC ([11]; read-out: MIC) [µg/mL] | MIC ([12]; read-out: MIC) [µg/mL] | MIC ([14]; read-out: MIC) [µg/mL] | MIC [15, 24] [µg/mL] | MIC [16, 25] [µg/mL] | MIC [17, 26] [µg/mL] | IC100, Topo II [19] | IC100, Gyrase [20] [µg/mL] | MIC [21] [µg/mL] | MIC [22] [µg/mL] | MIC [1] [µg/mL] | other results |
| --- | --- | --- | --- | --- | --- | --- | --- | --- | --- | --- | --- | --- | --- | --- | --- | --- | --- | --- | --- | --- | --- |
| O=C(O)c1cn(C2CC2)c2cc(N3CCNCC3)c(F)cc2c1=O [Ciprofloxacin, 1-cyclopropyl-6-fluoro-7-(piperazin-1-yl)-4-oxoquinoline-3-carboxylic acid, reference compound] | 0.004 (≈ 0.0121 µM) | 0.007 (≈ 0.0211 µM) | 0.195 (≈ 0.589 µM) | 0.007 (≈ 0.0211 µM) | < 0.002 | 0.013 (≈ 0.0392 µM) | 0.195 (≈ 0.589 µM) | 0.049 (≈ 0.148 µM) | 0.195 (≈ 0.589 µM) | 0.195 (≈ 0.589 µM) | 0.007 (≈ 0.0211 µM) | 0.391 (≈ 1.18 µM) | 0.195 (≈ 0.589 µM) | 0.391 (≈ 1.18 µM) | 3.12 (≈ 9.43 µM) | 500 µg/mL | 0.5 | – | – | – | MIC ([4]; 18 h): 0.049 µg/mL (≈ 0.148 µM); MIC ([13]; Staphylococcus aureus, 285, 18 h): 0.781 µg/mL (≈ 2.36 µM); MIC ([18]; Streptococcus pyogenes, A77, 18 h): 0.781 µg/mL (≈ 2.36 µM) |
| COc1c(N2CCC(CN)(c3ccccn3)C2)c(F)cc2c(=O)c(C(=O)O)cn(C3CC3)c12 (stereo not shown) [Compound 3, 1-cyclopropyl-6-fluoro-8-methoxy-7-[{3-aminomethyl-3-(pyridin-2-yl)pyrrolidin}-1-yl]-4-oxo-1,4-dihydroquinolin-3-carboxylic acid] | – | – | – | – | – | – | – | – | – | – | – | – | – | – | – | 1,000 μg/ml | 0.2 | <0.002 | 0.007 (≈ 0.0155 µM) | <0.002 | MIC [2]: 0.007 µg/mL (≈ 0.0155 µM); MIC [3, 27]: 0.049 µg/mL (≈ 0.108 µM); MIC [4, 28]: 0.013 µg/mL (≈ 0.0287 µM); MIC [5]: 0.007 µg/mL (≈ 0.0155 µM); MIC [6]: <0.002 µg/mL; MIC [7]: 0.013 µg/mL (≈ 0.0287 µM); MIC [8]: 0.195 µg/mL (≈ 0.431 µM); MIC [9, 29]: 0.098 µg/mL (≈ 0.217 µM); MIC [10]: 0.098 µg/mL (≈ 0.217 µM); MIC [11]: 0.195 µg/mL (≈ 0.431 µM); MIC [12]: 0.007 µg/mL (≈ 0.0155 µM); MIC [13, 30]: 0.013 µg/mL (≈ 0.0287 µM); MIC [14]: 0.007 µg/mL (≈ 0.0155 µM); MIC ([15]; 10^7 CFU/ml): 0.007 µg/mL (≈ 0.0155 µM); MIC [16]: 0.007 µg/mL (≈ 0.0155 µM); MIC ([17]; 10^7 CFU/ml): 0.013 µg/mL (≈ 0.0287 µM); MIC [18, 31]: 0.007 µg/mL (≈ 0.0155 µM) |
| COc1c(N2CCC(N)(c3ccncc3)C2)c(F)cc2c(=O)c(C(=O)O)cn(C3CC3)c12 (stereo not shown) [Compound 11, 1-cyclopropyl-6-fluoro-8-methoxy-7-[{3-amino-3-(pyridin-4-yl)pyrrolidin}-1-yl]-4-oxo-1,4-dihydroquinolin-3-carboxylic acid] | – | – | – | – | – | – | – | – | – | – | – | – | – | – | – | 1,000 μg/ml | 0.4 | 0.002 (≈ 0.00456 µM) | 0.004 (≈ 0.00912 µM) | <0.002 | MIC [2]: 0.013 µg/mL (≈ 0.0296 µM); MIC [3, 27]: 0.049 µg/mL (≈ 0.112 µM); MIC [4, 28]: 0.013 µg/mL (≈ 0.0296 µM); MIC [5]: 0.007 µg/mL (≈ 0.016 µM); MIC [6]: 0.002 µg/mL (≈ 0.00456 µM); MIC [7]: 0.013 µg/mL (≈ 0.0296 µM); MIC [8]: 0.195 µg/mL (≈ 0.445 µM); MIC [9, 29]: 0.098 µg/mL (≈ 0.224 µM); MIC [10]: 0.195 µg/mL (≈ 0.445 µM); MIC [11]: 0.195 µg/mL (≈ 0.445 µM); MIC [12]: 0.007 µg/mL (≈ 0.016 µM); MIC [13, 30]: 0.013 µg/mL (≈ 0.0296 µM); MIC [14]: 0.007 µg/mL (≈ 0.016 µM); MIC ([15]; 10^7 CFU/ml): 0.013 µg/mL (≈ 0.0296 µM); MIC [16]: 0.025 µg/mL (≈ 0.057 µM); MIC ([17]; 10^7 CFU/ml): 0.025 µg/mL (≈ 0.057 µM); MIC [18, 31]: 0.013 µg/mL (≈ 0.0296 µM) |
| CC1CN(c2c(F)c(N)c3c(=O)c(C(=O)O)cn(C4CC4)c3c2F)CC(C)N1 (stereo not shown) [Sparfloxacin, 1-cyclopropyl-5-amino-6,8-difluoro-7-(3,5-dimethylpiperazin-1-yl)-4-oxoquinoline-3-carboxylic acid, reference compound] | 0.004 (≈ 0.0102 µM) | 0.025 (≈ 0.0637 µM) | 0.195 (≈ 0.497 µM) | 0.013 (≈ 0.0331 µM) | < 0.002 | 0.025 (≈ 0.0637 µM) | 0.781 (≈ 1.99 µM) | 0.195 (≈ 0.497 µM) | 0.781 (≈ 1.99 µM) | 0.781 (≈ 1.99 µM) | 0.007 (≈ 0.0178 µM) | 0.049 (≈ 0.125 µM) | 0.098 (≈ 0.25 µM) | 0.391 (≈ 0.996 µM) | 0.391 (≈ 0.996 µM) | 500 µg/mL | 1.0 | – | – | – | MIC ([21]; read-out: MIC): 0.004 µg/mL (≈ 0.0102 µM); MIC ([22]; read-out: MIC): 0.007 µg/mL (≈ 0.0178 µM); MIC ([13]; Staphylococcus aureus 285, 10^7 CFU/ml, 37° C., 18 hours, read-out: MIC): 0.049 µg/mL (≈ 0.125 µM); MIC ([18]; A77, Streptococcus pyogenes A 77, 10^7 CFU/ml, 37° C., 18 hours, read-out: MIC): 0.195 µg/mL (≈ 0.497 µM) |
